By MIC is commonly meant the lowest concentration found to suppress growth. The IC50 is the concentration that gives 50% inhibition. A word on the viability: it is a read-out of living cells in per cent, often relative to untreated cells.

For data set [1], the system named is Paracoccidioides brasiliensis S1 isolate 18 (Pb18). The experiment in a line: MIC by microdilution (CLSI M27-A3 modified, alamar blue), Pb18. It is filed as cell-based. The note with it: read-out: Pb18 MIC. How it is done: (§1) Paracoccidioides brasiliensis S1 isolate 18 (Pb18-chronic PCM/São Paulo, Brazil), P. brasiliensis S2 (02-chronic PCM/Venezuela), and P. lutzii Pb01-strain ATCC MYA-826 (acute PCM/Goiânia, Brazil) were obtained from the mycology collection of the Mycology Laboratory, School of Pharmaceutical Sciences and were maintained in Fava-Netto agar medium at 37°C.
(§2) The MIC assay was performed according to the microdilution method described by Clinical and Laboratory Standards Institute ([CLSI, 2008]) document M27-A3 with modifications ([de Paula e Silva et al., 2013]). Alkyl derivatives of protocatechuic acid (hexyl, heptyl, octyl, nonyl, decyl, and dodecyl protocatechuates) were diluted according to CLSI M27-S3. The yeast suspension was adjusted to a final concentration of 1.5 × 10^3 CFU/mL in RPMI-1640 medium (Sigma–Aldrich, St. Louis, MO, United States) in 96-well plates and serial dilutions (from 250 to 0.24 μg/mL) of the compounds were then added; AMB and ITC were used as controls. The plates were incubated on a shaker at 37°C/150 rpm for a specific duration individually determined for each microorganism. The MIC was determined using alamar blue (Sigma–Aldrich, St. Louis, MO, United States) at 530 and 570 nm; a change from the original blue color of the reagent to pink […]. Following 72 or 96 h of incubation. The Minimum Fungicide Concentration (MFC) was determined by transferring an aliquot from the wells to Brain Heart Infusion (BHI) medium supplemented with 2% glucose (Difco, BD Biosciences) plates, which were then incubated at 37°C for 5–7 days. The MFC was defined as the concentration that inhibited growth ([Soares et al., 2014]).
(Broth dilution looks for growth in wells or tubes with falling amounts of substance.)

The subject of data set [2] is P. lutzii Pb01-strain ATCC MYA-826. The experiment in a line: MIC by microdilution (CLSI M27-A3 modified, alamar blue), Pb01. Type of data set: cell-based. The following applies: Paracoccidioides lutzii, read-out: Pb01 MIC. How it is done:
as §1, §2

Data set [3] can be described thus: Cytotoxicity assay, 0.4% sulforhodamine B, MRC5. Type of data set: cell-based. The note with it: human, MRC5 cells; for IC50 at 24 h: 24 h treatment, SRB; for viability at 24 h: at MIC, read-out: cell viability at the MIC values. The protocol: The cytotoxicity of the protocatechuates was assessed in the MRC5 cell line (MRC5) obtained from the American Type Culture Collection (ATCC; Manassas, VA, United States) and HepG2 cell line obtained from the Biotechnology Laboratory Biotech (UNICAMP, Brazil). The plates were first incubated with 1 × 10^5 cells per well at 36.5°C under 5% CO2 for 24 h to form a cell monolayer ([Husøy et al., 1993]). Compounds were tested at different concentrations ranging from 0.12 to 62.5 μg/mL using serial dilutions in a total volume of 100 μL per well. After the 24 h treatment the cytotoxicity was assessed by the 0.4% sulforhodamine B (SRB) ([Vichai and Kirtikara, 2006]). The assay is sensitive and measures the cellular protein content of adherent or suspension cultures in 96-well plates. Cells were fixed with trichloroacetic acid (TCA) and then stained for 30 min with SRB dissolved in acetic acid. In mildly acidic conditions, SRB binds on basic amino acid residues on TCA-fixed cells. The unbound dye is then removed after washing and the dye bound to the protein is solubilized in basic medium (Tris-base). The absorbance was measured at 570 nm. The result of the percentage of viable cells was performed using the following formula: according to [Rajpoot et al. (2012)] with minor modification.
Viable cells % = (test mean - hite mean/mean negative control - mean white) × 100

Data set [4] relates to P. brasiliensis S2 (02) (Pb02). The experiment in a line: MIC by microdilution (CLSI M27-A3 modified, alamar blue), Pb02. The note with it: Paracoccidioides brasiliensis, read-out: Pb02 MIC, P. brasiliensis Pb02. It is filed as cell-based. How it is done: as §1, §2
For data set [5], the system named is P. brasiliensis (Pb18) adhesion to fibronectin matrix. Nature of the data set: Inhibition of P. brasiliensis 18 adhesion to artificial ECM: fibronectin. Type of data set: cell-based, Paracoccidioides brasiliensis. The note with it: Pb18, 3 h adhesion, 24 h treatment. The protocol: (§3) Initially, 24-well plates were coated with ECM of fibronectin and laminin, respectively (Sigma–Aldrich, St. Louis, MO, United States) at a concentration of 50 μg/mL for 18 h at 4°C followed by incubation for 1 h at 37°C. The plates were then washed three times with PBS and fungal suspension was added at a concentration of 1.5 × 10^3 CFU/mL, which had been inoculated into the 24-well plate previously sensitized with ECM and incubated at 37°C for 1, 3, or 5 h. Subsequently, the supernatant was removed, the plate was washed with PBS, and then 300 μL of trypsin was added (Sigma). The supernatant was obtained and then centrifuged at 10,000 rpm for 5 min at (4°C). The new supernatant was discarded and 500 μL of FACS buffer was added for subsequent cell counting by flow cytometry (BD FACS Canto and BD FACS Diva software analysis). Following the adhesion period, treatment with the selected compound (dodecyl and NLS+dodecyl) was performed for 24 h at 37°C. RPMI-1640 with L-glutamine and 2% glucose was used to maintain adequate nutritional status. Subsequently, the supernatant was removed and the plate was washed with PBS. Then, 300 μL of trypsin was added and centrifuged. The supernatant was discarded and 500 μL of FACS buffer was added to each tube for subsequent cell counting by flow cytometry (BD FACS Canto and BD FACS Diva software analysis).

Data set [6] deals with P. brasiliensis (Pb18) adhesion to laminin matrix. Nature of the data set: Inhibition of P. brasiliensis 18 adhesion to artificial ECM: laminin. It is filed as cell-based, Paracoccidioides brasiliensis. The following applies: Pb18, 3 h adhesion, 24 h treatment. How it is done:
as §3

In data set [7] the test system is P. brasiliensis (Pb 18) adhesion to cell line MRC5. Nature of the data set: Inhibition of P. brasiliensis 18 adhesion to cells (MRC5), flow cytometry. It is filed as cell-based, Paracoccidioides brasiliensis. The following applies: Pb18 on MRC5, 3 h adhesion, 24 h treatment. The protocol:
Cells (MRC5) were cultured at 36.5°C in 24-well plates and adjusted to 1 × 10^5 cells per well. A P. brasiliensis suspension (1.5 × 10^3 CFU/mL) was labeled with 10 μM of 5(6)-carboxyfluorescein diacetate N-succinimidyl ester (CFSE; Sigma–Aldrich) and then added to the cells. The plate was incubated for 3 h at 36.5°C under 5% CO2 to enable the adhesion process. Subsequent to treatment, dodecyl and NLS+dodecyl were applied and the plate was incubated for 24 h under the same conditions. The supernatant was removed and the plate was washed with PBS. Then, 300 μL of trypsin (Sigma–Aldrich,) was added and centrifuged. The supernatant was discarded and 500 μL of FACS buffer was added to each tube, for subsequent cell counting by flow cytometry (BD FACS Canto) and BD FACS Diva software analysis ([Mendes-Giannini et al., 1994], [2004]; [Hanna et al., 2000]).
A general note: A flow cytometer gives signals particle by particle.

The test system of data set [8] is Caenorhabditis elegans wild-type strain N2. The experiment in a line: Toxicity assay in C. elegans model. It is filed as in vivo. The note with it: 24 h; for toxic effect on C. elegans survival: 0.03 to 125 μg/mL. The protocol:
Caenorhabditis elegans wild-type strain N2 was routinely cultured at 22°C on nematode growth medium (NGM) plates seeded with E. coli strain OP50. For the toxicity assay, eggs were harvested to obtain synchronous cultures. After 3 days, worms in the L4 stage were washed with M9 buffer. Then, approximately 20 worms were transferred to each well of a 96-wells plate containing 100 μL of 60% M9 buffer, 40% BHI, 10 μg/mL cholesterol (in ethanol), 200 μg/mL ampicillin, and 90 μg/mL kanamycin. Next, 100 μL of dodecyl protocatechuate, NLS, or NLS+dodecyl were added to the medium with final compound concentrations in each well ranging from 0.03 to 125 μg/mL. The plate was incubated at 22°C for 24 h. Worm survival was evaluated based on mobility and form (worms with a stick shape were considered dead and worms with a sinusoidal shape were considered alive). Images were acquired using an IN Cell Analyzer 2000 (GE Healthcare), microscope (10×).

Converted amounts (≈) assume the structure as drawn. “Also recorded” adds a separate entry of the source.

On to `C[C@@H]1[C@H](O)[C@@H](C)/C=C/C=C/C=C/C=C/C=C/C=C/C=C/[C@H](O[C@@H]2O[C@H](C)[C@@H](O)[C@H](N)[C@@H]2O)C[C@@H]2O[C@](O)(C[C@@H](O)C[C@@H](O)[C@H](O)CC[C@@H](O)C[C@@H](O)CC(=O)O[C@H]1C)C[C@H](O)[C@H]2C(=O)O` [AMB, Amphotericin B, reference compound], for which the minimal inhibitory concentration (MIC) in data set [1] was 0.13 µg/mL (≈ 0.141 µM); in data set [2] it was 0.06 µg/mL (≈ 0.0649 µM). The compound further yielded an IC50 at 24 h in data set [3] of 0.22 µg/mL (≈ 0.238 µM).
Consider `CCC(C)n1ncn(-c2ccc(N3CCN(c4ccc(OCC5COC(Cn6cncn6)(c6ccc(Cl)cc6Cl)O5)cc4)CC3)cc2)c1=O` (stereo not drawn) [ITC, itraconazole, reference compound], for which the results for the MIC in data set [1], in data set [2] and in data set [4] were 0.02 µg/mL (≈ 0.0283 µM), 0.12 µg/mL (≈ 0.17 µM) and 0.01 µg/mL (≈ 0.0142 µM), respectively. The IC50 at 24 h in data set [3] stood at 0.1 µg/mL (≈ 0.142 µM).
Consider `CCCCCCCCCCOC(=O)c1ccc(O)c(O)c1` [decyl, decyl protocatechuate], for which the MIC in data set [1] amounted to 0.97 µg/mL (≈ 3.29 µM); in data set [2], 1.9 µg/mL (≈ 6.45 µM); in data set [4] it was 0.48 µg/mL (≈ 1.63 µM). In data set [3], half-maximal inhibition (IC50 at 24 h) required 16 µg/mL (≈ 54.3 µM). Also, the viability at 24 h in data set [3] was 98%.
With `CCCCCCCCCCCCOC(=O)c1ccc(O)c(O)c1` [dodecyl, Dodecyl protocatechuate], the minimum inhibitory concentration (MIC) in data set [1] came to 0.48 µg/mL (≈ 1.49 µM); in data set [2], 0.48 µg/mL (≈ 1.49 µM); in data set [4], 0.24 µg/mL (≈ 0.744 µM). This compound also showed an IC50 at 24 h in data set [3] of 17.9 µg/mL (≈ 55.5 µM). In addition, the viability at 24 h in data set [3] came out at 98%. In data set [5], the “inhibition of adhesion to the fibronectin matrix” value was determined as 64%. Besides, the “inhibition of adhesion to the laminin matrix” value in data set [6] was 75%. Further, the “inhibition of adhesion to cells” value in data set [7] stood at 65%. Besides, the “Survival percentage of C. elegans worms” value in data set [8] (0.03 μg/mL), in data set [8] (0.48 μg/mL), in data set [8] (7.80 μg/mL), in data set [8] (15.60 μg/mL), in data set [8] (62.50 μg/mL) and in data set [8] (125.00 μg/mL) was 100% throughout. Besides, the “toxic effect on C. elegans survival” value in data set [8] was “neither dodecyl nor NLS+dodecyl exhibited any toxic effects; also recorded: did not affect worm survival at any concentration”; in data set [8] (listed as free dodecyl protocatechuate), “neither compound exhibited a toxic effect on survival”.
Consider `CCCCCCCOC(=O)c1ccc(O)c(O)c1` [heptyl, heptyl protocatechuate], for which the MIC in data set [1] amounted to 7.8 µg/mL (≈ 30.9 µM); in data set [2] it was 3.9 µg/mL (≈ 15.5 µM); in data set [4] it was 0.24 µg/mL (≈ 0.951 µM). Further, it took 17.6 µg/mL (≈ 69.8 µM) to reach half-maximal inhibition in data set [3] (IC50 at 24 h). The viability at 24 h in data set [3] worked out at 65%.
The like results for `CCCCCCOC(=O)c1ccc(O)c(O)c1` [hexyl, hexyl protocatechuate] were, in that order, 3.9 µg/mL (≈ 16.4 µM), 7.8 µg/mL (≈ 32.7 µM), 1.9 µg/mL (≈ 7.97 µM), 29.5 µg/mL (≈ 124 µM) and 99%.
Taken in the same sequence, the figures for `CCCCCCCCCOC(=O)c1ccc(O)c(O)c1` [nonyl, nonyl protocatechuate] were 1.9 µg/mL (≈ 6.78 µM), 0.97 µg/mL (≈ 3.46 µM), 0.48 µg/mL (≈ 1.71 µM), 17.7 µg/mL (≈ 63.1 µM) and 96%.
Consider `CCCCCCCCOC(=O)c1ccc(O)c(O)c1` [octyl, octyl protocatechuate], for which the minimal inhibitory concentration (MIC) in data set [1] was 0.97 µg/mL (≈ 3.64 µM); in data set [2] it was 0.97 µg/mL (≈ 3.64 µM); in data set [4] it was 1.9 µg/mL (≈ 7.13 µM). Also, half-maximal inhibition in data set [3] (IC50 at 24 h) required 33.7 µg/mL (≈ 127 µM). Moreover, the viability at 24 h in data set [3] amounted to 98%.
